Data published in patent publication US10351553B2, “Potassium channel modulators” (Cadent Therapeutics, Inc., priority 2017, dated 2019).
Read-outs that look alike come from different tables or passages of the source.

What was measured:
CYP1A2 = biological target: T1, CYP1A2 (Homo sapiens, UniProt P05177); test: CYP inhibition in human liver microsome, CYP1A2 (Phenacetin); format: in vitro ADME
T1 construct: Matrix: Human Liver Microsome (Invitrogen, life technologies); tissue Invitrogen, life technologies; host or cells: human liver microsomes
T1 sequence (P05177 1-516): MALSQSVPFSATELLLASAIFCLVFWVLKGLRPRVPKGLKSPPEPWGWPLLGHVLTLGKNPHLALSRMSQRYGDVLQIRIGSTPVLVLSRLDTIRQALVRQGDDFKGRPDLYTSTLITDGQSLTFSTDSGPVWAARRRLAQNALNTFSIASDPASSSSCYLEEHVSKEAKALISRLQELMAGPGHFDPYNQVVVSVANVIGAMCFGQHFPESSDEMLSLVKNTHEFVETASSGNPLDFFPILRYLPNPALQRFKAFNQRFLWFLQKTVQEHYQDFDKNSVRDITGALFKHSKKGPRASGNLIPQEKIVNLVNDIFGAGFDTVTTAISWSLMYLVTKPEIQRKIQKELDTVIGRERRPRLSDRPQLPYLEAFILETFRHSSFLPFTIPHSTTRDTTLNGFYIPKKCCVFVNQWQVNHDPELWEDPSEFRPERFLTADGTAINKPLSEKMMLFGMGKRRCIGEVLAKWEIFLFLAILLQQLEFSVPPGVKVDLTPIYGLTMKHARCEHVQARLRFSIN
Description: Compounds described herein were tested for CYP inhibition across 5 isoforms (3A4, 2D6, 2C9, 2C19 & 1A2). In this assay, CYP isoform specific substrates are incubated with human liver microsome (HLM) in the presence of test compounds, and metabolite formation is determined. Percentage inhibition of metabolite formation at different concentrations of test compound is calculated and IC50 is determined. Conditions used in the assay are summarized below. Results are shown in Table 2. • Test drug (Inhibitor) Concentration: 8 different concentrations (100 μM to 0.005 μM) • Matrix: Human Liver Microsome (Invitrogen, life technologies) • Specific probe substrates will be used for the isoforms as given below: • CYP3A4: Midazolam • CYP2D6: Bufuralol • CYP2C9: Diclofenac • CYP2C19: Mephynitoin • CYP1A2: Phenacetin • Cofactors: NADPH (1 mM final in assay) • Sample Analysis: LC-MS/MS (metabolites) • Specific reference inhibitors included in all assays (Ketoconazole/Quinidine/Sulphaphenazole/Ticlopidine/Furafylline) • Buffer: Potassium Phosphate Buffer (100 mM) pH 7.4 • DMSO level in assay: 0.1% • Data analysis: % Inhibition over control

[1] = Oral bioavailability in rat; format: in vivo; details: male, Sprague Dawley, plasma; 10 mg/kg PO, 0.5 mg/kg IV in rat
Excerpt: Oral bioavailability data was collected in rat as follows.

[2] = Brain free fraction by equilibrium dialysis in rat brain tissue homogenate; format: in vitro ADME; details: 10% rat brain tissue homogenate, Tables 2 and 3
Description: (§1) The extent to which compounds modulate SK2 channels in vivo is expressed as % SK2 SC100, which is the ratio of the concentration of the drug free in the brain to the measured potency of the compound on the SK2 channel. It is calculated as follows: CFB=CMB×BFF, where CMB is the concentration of compound measured by liquid chromatography mass spectrometry from brains harvested immediately following tremor recording (Table 1, “Measured Brain Concentration”). CFB is the amount of free compound not complexed with protein and therefore free to interact with the SK2 channel (Table 1, “Calculated Free Brain Concentration”). BFF is average free fraction of compound as measured by equilibrium dialysis in separate experiments (1 uM test concentration incubated in 10% rat brain tissue homogenate for 5 hours at 37° C.) (Table 1, “Brain Free Fraction”). Free drug in brain available to interact with SK2 channels (CFB) is arrived at by multiplying the measured total brain level (CMB) by the average free fraction (BFF).

harmaline induced tremor = test: Harmaline induced tremor, tremor events by forepaw transmitter band; format: in vivo, rat
Description: Immediately following harmaline injection, animals were placed in the tremor quantification apparatus and tremor events were quantified for 60 minutes. A tremor event signal was generated when a small metal transmitter band fitted to the right forepaw of the animal moved within the electromagnetic field generated by a loop antenna within the testing apparatus. Outputs from the amplifier were digitized at a sampling rate of 1,000 Hz and the signal was processed and analyzed using LabView software (National Instruments). To minimize signal from ambulatory and grooming behavior, the signal was filtered with a 128-ms unweighted moving average filter, and events with amplitudes>0.5 V and lasting>300 ms in duration were counted as a tremor event. Data were analyzed in one-minute bins over the course of the test and presented as the sum of tremor events over the entire 60 minute test.

Purkinje neurons = test: Purkinje cell firing irregularity in ex vivo cerebellar slices from SCA2 58Q transgenic mice; format: cell-based, mouse; details: bath application of 1 or 3 μM; slices from eleven-month old SCA2 58Q mice; P<0.05; FIG. 3
Excerpt: The difference in ISI CV between wild-type (N=8) and SCA2 58Q (N=11) mice is illustrated in FIG. 3 (P<0.005).

harmaline-induced tremor = test: Harmaline-induced whole body tremor, force-plate accelerometer (Tremor Monitor); format: in vivo
Description: Whole body tremor was measured by a San Diego Instruments Tremor Monitor (San Diego, Calif., USA). […] Tremor was measured for 30 minutes following harmaline administration, and data were analyzed by fast Fourier transform and reported as a frequency power spectrum. Harmaline induced a significant increase in the power spectrum in a band of frequencies between 10 and 14 Hz. […] Data were further analyzed by calculating the percent Motion Power (% MP), defined as the power in the 9-13 Hz band divided by the total power across the spectrum (0-30 Hz) multiplied by 100.

[3] = Brain concentration by LC-MS from brains harvested after tremor recording; format: in vivo; details: Sprague Dawley, rat, oral, 30 mg/Kg
Description: as §1
The amount of free compound is then expressed in terms of its potency against the SK2 channel as follows: % SK2 SC100=CFB/SK2 SC100×100, where SK2 SC100 (Table 1, “SK2 SC100”) is the measured value of potency of the compound on SK2 channels and % SK2 SC100 (Table 1, “% SK2 SC100”) is the free brain concentration (CFB) normalized to SK2 SC100.

Structure (SMILES)	IC50 (CYP1A2)	bioavailability [1]	fraction unbound at 5 h, 1 uM [2]	Effect on harmaline induced tremor (sum of tremor events over 60 minutes) (harmaline induced tremor; 30 mg/Kg oral, 30 minutes prior to harmaline, male Sprague Dawley rats, FIG. 1)	Minimally Efficacious Dose (harmaline induced tremor; harmaline induced tremor, oral administration)	Effect on coefficient of variation of the interspike interval (ISI CV) (Purkinje neurons)	Effect on percent Motion Power (% MP) (harmaline-induced tremor; 3 mg/kg P<0.01, 10 and 30 mg/kg P<0.05, orally, FIG. 2)	Effect on harmaline-induced power spectrum, 10 to 14 Hz band (harmaline-induced tremor; 3, 10, and 30 mg/kg orally 30 minutes prior to 5 mg/kg harmaline i.p.)	concentration at 90 min ([3]; CFB=CMB×BFF, read-out: Calculated Free Brain Concentration)	concentration at 90 min ([3]; brains harvested immediately following tremor recording, minimally efficacious dose, read-out: Measured Brain Concentration)
Cc1cc(NC2CCCCC2)nc(-n2nc(C)cc2C)n1 [Comparator A, reference compound]	640 nM	5%	0.012							
Cc1ccn(-c2nc(NC3CCC(F)(F)CC3)cc(N3CCOCC3)n2)n1 [Compound 1, N-(4,4-difluorocyclohexyl)-2-(3-methyl-1H-pyrazol-1-yl)-6-morpholinopyrimidin-4-amine]	> 10000 nM	81%	0.061	significant inhibition of tremors	30 mg/kg	partially reversed the increase in ISI CV	significantly reduced harmaline-induced tremor	significantly reduced tremor	80 nM	1300 nM
